Test results reported in patent US20170275298A1, “INHIBITORS OF THE RENAL OUTER MEDULLARY POTASSIUM CHANNEL” (Merck Sharp & Dohme Corp., priority 2014, published 2017).

Biological target: T1, hROMK (hKir1.1) (Homo sapiens, UniProt P48048)
T1 construct: expressed in transfected cells
T1 sequence (P48048 1-391): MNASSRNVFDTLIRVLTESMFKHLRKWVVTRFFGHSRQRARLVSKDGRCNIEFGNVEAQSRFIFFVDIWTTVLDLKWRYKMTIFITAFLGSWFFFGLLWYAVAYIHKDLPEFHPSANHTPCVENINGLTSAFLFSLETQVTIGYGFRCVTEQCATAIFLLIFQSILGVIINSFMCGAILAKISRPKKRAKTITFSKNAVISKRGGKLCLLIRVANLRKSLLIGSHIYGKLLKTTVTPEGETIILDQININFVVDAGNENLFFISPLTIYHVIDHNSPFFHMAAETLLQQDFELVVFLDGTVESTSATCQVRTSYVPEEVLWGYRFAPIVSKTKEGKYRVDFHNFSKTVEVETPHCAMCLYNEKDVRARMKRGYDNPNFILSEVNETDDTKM
Assay: Thallium Flux Assay (ROMK channel functional thallium flux assay)
Type: cell-based
Conditions: HEK293 cells stably expressing hROMK (hKir1.1); FluxOR thallium flux, FLIPR-Tetra, 30 min compound incubation; read-out: ROMK TI IC50
How it was run: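 HEK293 cells stably expressing hROMK (hKir1.1) loaded with FluxOR dye 90 min at ambient temperature, then compound 30 min before thallium/potassium stimulant (final 3 mM Tl/0.3 mM K). ROMK-sensitive flux defined by 3 μM standard inhibitor; data as % fluorescence change.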

Row | SMILES | IC50
1 | Cc1c([C@@H](O)CN2CCC3(CC2)CCN(c2ccnnc2)C3=O)ccc2c1COC2=O [Example 90, (R)-8-(2-hydroxy-2-(4-methyl-1-oxo-1,3-dihydroisobenzofuran-5-yl)ethyl)-2-(pyridazin-4-yl)-2,8-diazaspiro[4.5]decan-1-one] | 120 nM
2 | COc1cc(N2CCOC3(CCN(C[C@H](O)c4ccc5c(c4C)COC5=O)CC3)C2=O)ccn1 [Example 23, (R)-9-(2-hydroxy-2-(4-methyl-1-oxo-1,3-dihydroisobenzofuran-5-yl)ethyl)-4-(2-methoxypyridin-4-yl)-1-oxa-4,9-diazaspiro[5.5]undecan-5-one] | 407 nM
3 | Cc1c([C@@H](O)CN2CCC3(CC2)CCN(c2ccc(=O)n(C(F)F)c2)C3=O)ccc2c1COC2=O [Example 54, (R)-2-(1-(difluoromethyl)-6-oxo-1,6-dihydropyridin-3-yl)-8-(2-hydroxy-2-(4-methyl-1-oxo-1,3-dihydroisobenzofuran-5-yl)ethyl)-2,8-diazaspiro[4.5]decan-1-one] | 293 nM
4 | Cc1nccc(N2CCC3(CCN(C[C@H](O)c4ccc5c(c4C)COC5=O)CC3)C2=O)n1 [Example 41, (R)-8-(2-hydroxy-2-(4-methyl-1-oxo-1,3-dihydroisobenzofuran-5-yl)ethyl)-2-(2-methylpyrimidin-4-yl)-2,8-diazaspiro[4.5]decan-1-one] | 193 nM
5 | COc1nccc(N2CCC3(CCN(C[C@H](O)c4ccc5c(c4C)COC5=O)CC3)C2=O)n1 [Example 80, (R)-8-(2-hydroxy-2-(4-methyl-1-oxo-1,3-dihydroisobenzofuran-5-yl)ethyl)-2-(2-methoxypyrimidin-4-yl)-2,8-diazaspiro[4.5]decan-1-one] | 14.3 nM
6 | Cc1cc2c(cc1[C@H](O)CN1CCC3(CC1)CCN(c1ccns1)C3=O)COC2=O [Example 69, (S)-8-(2-hydroxy-2-(6-methyl-1-oxo-1,3-dihydroisobenzofuran-5-yl)ethyl)-2-(isothiazol-5-yl)-2,8-diazaspiro[4.5]decan-1-one] | 673 nM
7 | Cc1c([C@@H](O)CN2CCC3(CC2)CCN(c2ccnc(N(C)C)n2)C3=O)ccc2c1COC2=O [Example 43, (R)-2-(2-(dimethylamino)pyrimidin-4-yl)-8-(2-hydroxy-2-(4-methyl-1-oxo-1,3-dihydroisobenzofuran-5-yl)ethyl)-2,8-diazaspiro[4.5]decan-1-one] | 521 nM
8 | Cc1cc2c(cc1[C@@H](O)CN1CCC3(CC1)CCN(c1ccns1)C3=O)COC2=O [Example 68, (R)-8-(2-hydroxy-2-(6-methyl-1-oxo-1,3-dihydroisobenzofuran-5-yl)ethyl)-2-(isothiazol-5-yl)-2,8-diazaspiro[4.5]decan-1-one] | 221 nM
9 | CCn1nc(N2CCC3(CCN(C[C@H](O)c4ccc5c(c4C)COC5=O)CC3)C2=O)ccc1=O [Example 51, (R)-2-(1-ethyl-6-oxo-1,6-dihydropyridazin-3-yl)-8-(2-hydroxy-2-(4-methyl-1-oxo-1,3-dihydroisobenzofuran-5-yl)ethyl)-2,8-diazaspiro[4.5]decan-1-one] | 77 nM
10 | Cc1c([C@@H](O)CN2CCC3(CC2)CCN(c2ncns2)C3)ccc2c1COC2=O [Example 8, (R)-5-(2-(2-(1,2,4-thiadiazol-5-yl)-2,8-diazaspiro[4.5]decan-8-yl)-1-hydroxyethyl)-4-methylisobenzofuran-1(3H)-one] | 526 nM
11 | COc1nccc(N2CCC3(CCN(C[C@H](O)c4ccc(-n5cnnn5)nc4C)CC3)C2=O)n1 [Example 89, (R)-8-(2-hydroxy-2-(2-methyl-6-(1H-tetrazol-1-yl)pyridin-3-yl)ethyl)-2-(2-methoxypyrimidin-4-yl)-2,8-diazaspiro[4.5]decan-1-one] | 787 nM
12 | Cc1c([C@@H](O)CN2CCC3(CC2)CCN(c2cc(C(F)(F)F)ncn2)C3)ccc2c1COC2=O [Example 9, (R)-5-(1-hydroxy-2-(2-(6-(trifluoromethyl)pyrimidin-4-yl)-2,8-diazaspiro[4.5]decan-8-yl)ethyl)-4-methylisobenzofuran-1(3H)-one] | 173 nM
13 | Cc1cc(N2CCC3(CCN(C[C@H](O)c4ccc5c(c4C)COC5=O)CC3)C2=O)sn1 [Example 66, (R)-8-(2-hydroxy-2-(4-methyl-1-oxo-1,3-dihydroisobenzofuran-5-yl)ethyl)-2-(3-methylisothiazol-5-yl)-2,8-diazaspiro[4.5]decan-1-one] | 17.5 nM
14 | COc1cc(N2CCC3(CCN(C[C@H](O)c4ccc5c(c4C)COC5=O)CC3)C2=O)ccn1 [Example 74, (R)-8-(2-hydroxy-2-(4-methyl-1-oxo-1,3-dihydroisobenzofuran-5-yl)ethyl)-2-(2-methoxypyridin-4-yl)-2,8-diazaspiro[4.5]decan-1-one] | 55.7 nM
15 | CC(=O)OCc1nsc(N2CCC3(CCN(C[C@H](O)c4ccc5c(c4C)COC5=O)CC3)C2)n1 [Example 3, (5-{8-[(2R)-2-hydroxy-2-(4-methyl-1-oxo-1,3-dihydro-2-benzofuran-5-yl)ethyl]-2,8-diazaspiro[4.5]dec-2-yl}-1,2,4-thiadiazol-3-yl)methyl acetate] | 100 nM
16 | Cc1c([C@@H](O)CN2CCC3(CC2)CCN(c2ccc(=O)n(C(F)F)n2)C3=O)ccc2c1COC2=O [Example 55, (R)-2-(1-(difluoromethyl)-6-oxo-1,6-dihydropyridazin-3-yl)-8-(2-hydroxy-2-(4-methyl-1-oxo-1,3-dihydroisobenzofuran-5-yl)ethyl)-2,8-diazaspiro[4.5]decan-1-one] | 133 nM
17 | COc1nccc(N2CCOC3(CCN(C[C@H](O)c4ccc5c(c4C)COC5=O)CC3)C2=O)n1 [Example 24, (R)-9-(2-hydroxy-2-(4-methyl-1-oxo-1,3-dihydroisobenzofuran-5-yl)ethyl)-4-(2-methoxypyrimidin-4-yl)-1-oxa-4,9-diazaspiro[5.5]undecan-5-one] | 30.2 nM
18 | Cc1c([C@@H](O)CN2CCC3(CC2)CCN(c2ccc(C(F)F)nc2)C3=O)ccc2c1COC2=O [Example 33, (R)-2-(6-(difluoromethyl)pyridin-3-yl)-8-(2-hydroxy-2-(4-methyl-1-oxo-1,3-dihydroisobenzofuran-5-yl)ethyl)-2,8-diazaspiro[4.5]decan-1-one] | 63.1 nM

The remaining lines, values ahead:

Row | IC50 | SMILES
19 | 42 nM | Cc1c([C@@H](O)[C@H](C)N2CCC3(CCN(c4ccc(=O)n(C)n4)C3=O)CC2)ccc2c1COC2=O [Example 107, 8-((1R,2S)-1-hydroxy-1-(4-methyl-1-oxo-1,3-dihydroisobenzofuran-5-yl)propan-2-yl)-2-(1-methyl-6-oxo-1,6-dihydropyridazin-3-yl)-2,8-diazaspiro[4.5]decan-1-one]
20 | 8.45 nM | Cc1c([C@@H](O)CN2CCC3(CC2)CCN(c2ccc(Cl)nn2)CC3)ccc2c1COC2=O [Example 123, (R)-5-(2-(9-(6-chloropyridazin-3-yl)-3,9-diazaspiro[5.5]undecan-3-yl)-1-hydroxyethyl)-4-methylisobenzofuran-1(3H)-one]
21 | 54.7 nM | Cc1c([C@@H](O)CN2CCC3(CC2)C[C@@H](C)N(c2ccc(=O)n(C)n2)C3=O)ccc2c1COC2=O [Example 98, (R)-8-((R)-2-hydroxy-2-(4-methyl-1-oxo-1,3-dihydroisobenzofuran-5-yl)ethyl)-3-methyl-2-(1-methyl-6-oxo-1,6-dihydropyridazin-3-yl)-2,8-diazaspiro[4.5]decan-1-one]
22 | 185 nM | Cc1c([C@@H](O)CN2CCC3(CC2)CCN(c2cncc(F)c2)CC3)ccc2c1COC2=O [Example 111, 9-(5-fluoropyridin-3-yl)-3-[(2R)-2-hydroxy-2-(4-methyl-1-oxo-1,3-dihydro-2-benzofuran-5-yl)ethyl]-9-aza-3-azoniaspiro[5.5]undecane]
23 | 281 nM | Cc1c([C@@H](O)CN2CCC3(CC2)CCN(c2cncc(Cl)n2)CC3)ccc2c1COC2=O [Example 126, (R)-5-(2-(9-(6-chloropyrazin-2-yl)-3,9-diazaspiro[5.5]undecan-3-yl)-1-hydroxyethyl)-4-methylisobenzofuran-1(3H)-one]
24 | 384 nM | COc1ccnc(N2CCC3(CCN(C[C@H](O)c4ccc5c(c4C)COC5=O)CC3)CC2)n1 [Example 114, (R)-5-(1-hydroxy-2-(9-(4-methoxypyrimidin-2-yl)-3,9-diazaspiro[5.5]undecan-3-yl)ethyl)-4-methylisobenzofuran-1(3H)-one]
25 | 616 nM | Cc1c([C@@H](O)CN2CCC3(CC2)CCN(c2ccc(=O)n(C)n2)CC3)ccc2c1COC2=O [Example 113, (R)-6-(9-(2-hydroxy-2-(4-methyl-1-oxo-1,3-dihydroisobenzofuran-5-yl)ethyl)-3,9-diazaspiro[5.5]undecan-3-yl)-2-methylpyridazin-3(2H)-one]
26 | 775 nM | Cc1c([C@@H](O)CN2CCC3(CC2)CC(=O)N(c2ccnc(Cl)n2)C3)ccc2c1COC2=O [Example 91, (R)-2-(2-chloropyrimidin-4-yl)-8-(2-hydroxy-2-(4-methyl-1-oxo-1,3-dihydroisobenzofuran-5-yl)ethyl)-2,8-diazaspiro[4.5]decan-3-one]
27 | 6.28 nM | Cc1c([C@@H](O)CN2CCC3(CC2)CCN(c2cnccn2)CC3)ccc2c1COC2=O [Example 116, (R)-5-(1-hydroxy-2-(9-(pyrazin-2-yl)-3,9-diazaspiro[5.5]undecan-3-yl)ethyl)-4-methylisobenzofuran-1(3H)-one]
